# Molecular target: T1, human PCNA (Homo sapiens, UniProt P12004)
# T1 construct: His6 (C); made in house; host or cells: E. coli Codon Plus BL21(DE3) pLysS
# Assay: Isothermal titration calorimetry (ITC), PIP peptide titrated into wild-type PCNA
# Type: binding
# From the text: The wild-type and R426D peptides were expressed as GST fusions in E. coli, purified to homogeneity (see Materials and Methods) and used in isothermal titration calorimetry (ITC) assays with human PCNA purified from E. coli.
# Recombinant PCNA, PCNA-Y250I, and the PIP peptides (wild-type, R426D) were expressed and purified as described in the Supplementary Materials section—“Expression and purification of recombinant proteins”. The proteins were dialyzed against three 4-litre changes of ITC buffer containing 10 mM sodium phosphate, pH 7.0, and 10 mM NaCl at 4 °C overnight. The concentrations of PCNA and PIP peptides were determined by measuring tyrosine absorption at A280nm. ITC titrations of peptides into PCNA were performed at 23 °C in the ITC buffer (10 mM sodium phosphate, pH 7.0, 10 mM NaCl) using a MicroCal VP-ITC system. The concentrations of injected wild-type and mutant PIP in the syringe varied from 200 to 500 μM, whereas PCNA in the ITC sample cell varied depending on the experiment from 20 to 50 μM PCNA monomer. The protein and peptide samples were degassed before the ITC run. Data analysis was performed using the MicroCal Origin 7.0 software (OriginLab Corporation, Northampton, MA, USA) and all experiments fit the single binding site model.
# Supplementary Materials-Expression and purification of recombinant proteins
# S1. Expression and purification of GST-PIP fusion proteins in Escherichia coli Wild-type p150 PIP and R426D peptides were constructed as GST-fusion proteins with a tyrosine at the C-terminus of the peptide. The C-terminal tyrosine was added to aid in peptide detection during the purification by measuring the absorbance at 280 nm. The DNA fragments encoding the GST fusion proteins were inserted into a pGEX-TEV vector, which is essentially a modified pGEX-2T vector where the thrombin cleavage site was replaced with a TEV cleavage site. The pGEX-TEV plasmid was digested with BamHI and EcoRI and ligated to DNA fragments encoding either the p150 PIP wild-type and R426D. The plasmids pGEX-TEV-PIP wild type and pGEX-TEV-PIP R426D were con-firmed by DNA sequencing and then expressed in Escherichia coli host strain TOPP2 (Strat-agene) with 100 µg/ml ampicillin to saturation at 37°C. The next day, the saturated cells were diluted to 0.05 OD measured at A600 nm and the cells were grown at 37°C until the cells reach the mid-exponential phase of 0.6-0.8 at OD A600 nm. The cells were then in-duced with 1 mM isopropyl-D-thiogalactopyranoside (IPTG) for 4 h. Eight litres of cell culture were grown each for the wild-type and R426D mutant. The cells were then har-vested by centrifugation in an Avanti J-26XP high-performance centrifuge from Beckman Coulter with a fixed angle rotor (JLA-8.1000) at 9000 x g for 30 min at 4°C. The pellet from 1 litre cells equivalent was lysed in 10 ml of lysis buffer containing 20 mM Tris pH 7.5, 1 M NaCl, 0.2 mM EDTA, 1 mM DTT, 50 µg/ml lysozyme, 1 mM AEBSF and one tablet of cOmplete™ Mini EDTA-free Protease Inhibitor Cocktail Tablets (Roche). The cell pellet was sonicated in the lysis buffer on ice, at power output level 4 with 10 seconds pulse on and 30 seconds off at 6 watts using a Misonix 3000 Ultrasonic cell disruptor and wider probe. The lysate was clarified by centrifugation for 30 min in an Avanti J-26XP with a fixed angle rotor 25.50 at 30966 x g at 4°C. The clarified supernatant was incubated on a nutator for 6 h at 4°C with 10 ml of glutathione-Sepharose (GSH) resin (Amersham) pre-washed and equilibrated with lysis buffer. After incubation the GSH resin was pelleted, the unbound supernatant was removed, and the resin was washed thrice with lysis buffer and twice with Tobacco Etch Virus (TEV) protease buffer (20 mM sodium phosphate pH 6.5, 50 mM NaCl, 2 mM DTT). The peptide was cleaved from the GSH resin by incubating in the presence of TEV protease overnight at 4°C. The next day, the supernatant was har-vested by centrifugation, and the GSH resin was washed twice with 20 mM sodium phos- […]
# T1 sequence (P12004 whole entry): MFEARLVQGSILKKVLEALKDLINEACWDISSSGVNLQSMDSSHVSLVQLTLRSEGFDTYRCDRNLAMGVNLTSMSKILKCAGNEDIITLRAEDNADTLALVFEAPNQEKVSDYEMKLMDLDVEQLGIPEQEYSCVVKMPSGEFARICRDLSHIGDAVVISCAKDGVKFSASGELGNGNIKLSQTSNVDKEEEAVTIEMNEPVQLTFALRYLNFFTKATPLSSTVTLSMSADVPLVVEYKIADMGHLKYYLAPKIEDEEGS
sequence,measurement,setting,value
"KAEITDFFQKPKT [CAF-1 PIP R426D, R426D p150 PIP expressed as GST fusion with C-terminal tyrosine, TEV-cleaved and purified, used for ITC]",Kd (result in words),"ITC at 296 K, 10 mM Na-phosphate (pH 7.0), 10 mM NaCl, R426D",No binding
same,heat exchange / binding to wild-type PCNA,"ITC, 23 °C, 10 mM sodium phosphate, pH 7.0, 10 mM NaCl",did not observe any heat exchange

# From paper PMC9570017, “Unorthodox PCNA Binding by Chromatin Assembly Factor 1” (International Journal of Molecular Sciences, 2022)
